For this assay, the target named is T1, human CXCR4 receptor (Homo sapiens, UniProt P61073).
T1 construct: expressed in transfected cells
The assay is described as follows: Measurement of intracellular Ca+2 responses (FLIPR), antagonism of the SDF-1α response. In kind it is cell-based. Particulars: HEK-Gqi5 cells stably expressing human CXCR4; for IC50: antagonism of SDF-1α at 1.9 nM (EC65), Fluo-4 calcium, FLIPR; for inhibition: percent antagonism of SDF-1α at 1.9 nM (EC65), test drug 2.44 nM to 40,000 nM. As for the experimental part:
Measurement of Intracellular Ca^+2 Responses for CXCR4 Compounds
HEK-Gqi5 cells stably expressing the human CXCR4 receptor were utilized for these studies. The growth media for the CXCR4 receptor expressing cell line was DMEM high glucose medium supplemented with 10% fetal bovine serum (FBS), 1% antibiotic-antimycotic, 50 ug/ml hygromycin B, and 400 μg/ml geneticin. Ten thousand cells per well were plated into 384-well poly-D-lysine coated plates one day prior to use. On the day of the experiment, the cells were washed twice with Hank's Balanced Salt Solution supplemented with 20 mM hepes (HBSS/hepes buffer). The cells were then dye loaded with 2 uM Fluo-4 diluted in the HBSS/Hepes buffer and incubated at 37° C. for 40 minutes. Extracellular dye was removed by washing the cell plates four times prior to placing the plates in the FLIPR (Fluorometric Imaging Plate Reader, Molecular Devices). Ligands were diluted in HBSS/Hepes buffer and prepared in 384-well microplates. The positive control, stromal-cell derived factor-1 (SDF-1α), was diluted in HBSS/Hepes buffer with 4 mg/ml fatty acid free bovine serum albumin. Two drug additions were made by the FLIPR. The first drug addition was the test drug in concentrations ranging from 2.44 nM to 40,000 nM. After this addition, fluorescent measurements were taken. Any calcium release in response to this drug addition represents agonist activity of the compounds. The second drug addition was SDF-1α at a final concentration of 1.9 nM (EC65). Fluorescence measurements were also taken after this second drug addition and were used to determine the ability of the test compounds to antagonize the SDF-1α response. Results were expressed as EC50 and efficacy values, as well as IC50 and percent antagonism values. As controls, SDF-1α (CXCR4 agonist) and AMD3100 (CXCR4 antagonist) dose-response curves were also determined in each study.

Structures are written as SMILES.

T1 sequence (P61073 whole entry): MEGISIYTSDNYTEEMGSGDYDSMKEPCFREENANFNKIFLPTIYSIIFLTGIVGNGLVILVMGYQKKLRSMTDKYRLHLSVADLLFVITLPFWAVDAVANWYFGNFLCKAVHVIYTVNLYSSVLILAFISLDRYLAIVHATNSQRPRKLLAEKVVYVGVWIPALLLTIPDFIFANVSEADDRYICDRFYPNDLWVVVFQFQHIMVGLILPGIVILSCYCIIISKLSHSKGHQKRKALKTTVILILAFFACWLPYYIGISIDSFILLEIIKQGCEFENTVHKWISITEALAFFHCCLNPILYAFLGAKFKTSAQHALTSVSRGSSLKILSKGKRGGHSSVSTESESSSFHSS

On to `CN(C)CCNc1nc(NC2CCN(Cc3c(OCCN(C)C)cccc3N(C)C)CC2)c2sccc2n1` [Compound 2], for which the IC50 stood at 110 nM and the inhibition is 95%.

Regarding `COc1cccc(N(C)C)c1CN1CCC(Nc2nc(NCCN(C)C)nc3c2CCC3)CC1` [Compound 1, N^2-[2-(Dimethylamino)ethyl]-N^4-{1-[2-(dimethylamino)-6-methoxybenzyl]piperidin-4-yl}-6,7-dihydro-5H-cyclopenta[d]pyrimidine-2,4-diamine], the half-inhibitory concentration (IC50) is 2920 nM and the inhibition came out at 93%.

A word on the IC50: it is the concentration needed to halve the response being measured. Broadly, the inhibition is the percentage by which the read-out fell short of the control. Lower therefore signals little suppression.

The values above are taken from patent US9090624B2, “Aromatic bycyclic derivatives as CXCR4 receptor modulators” (Allergan, Inc., priority 2011, dated 2015).
